Reference: patent US10689354B2, “Aminoazole derivative” (Teijin Pharma Limited, priority 2015, dated 2020)

Tests used:
[1] = biological target: T1, human androgen receptor (Homo sapiens, UniProt P10275); assay: Reporter assay of an androgen receptor responsive sequence (luciferase, transiently transfected HEK293 cells); format: cell-based; details: 24 hours incubation, relative to activity of 100 nM DHT, read-out: AR transcriptive activity (pEC50) (converted)
T1 construct: expressed in transfected cells; host or cells: HEK293
T1 sequence (P10275 1-920): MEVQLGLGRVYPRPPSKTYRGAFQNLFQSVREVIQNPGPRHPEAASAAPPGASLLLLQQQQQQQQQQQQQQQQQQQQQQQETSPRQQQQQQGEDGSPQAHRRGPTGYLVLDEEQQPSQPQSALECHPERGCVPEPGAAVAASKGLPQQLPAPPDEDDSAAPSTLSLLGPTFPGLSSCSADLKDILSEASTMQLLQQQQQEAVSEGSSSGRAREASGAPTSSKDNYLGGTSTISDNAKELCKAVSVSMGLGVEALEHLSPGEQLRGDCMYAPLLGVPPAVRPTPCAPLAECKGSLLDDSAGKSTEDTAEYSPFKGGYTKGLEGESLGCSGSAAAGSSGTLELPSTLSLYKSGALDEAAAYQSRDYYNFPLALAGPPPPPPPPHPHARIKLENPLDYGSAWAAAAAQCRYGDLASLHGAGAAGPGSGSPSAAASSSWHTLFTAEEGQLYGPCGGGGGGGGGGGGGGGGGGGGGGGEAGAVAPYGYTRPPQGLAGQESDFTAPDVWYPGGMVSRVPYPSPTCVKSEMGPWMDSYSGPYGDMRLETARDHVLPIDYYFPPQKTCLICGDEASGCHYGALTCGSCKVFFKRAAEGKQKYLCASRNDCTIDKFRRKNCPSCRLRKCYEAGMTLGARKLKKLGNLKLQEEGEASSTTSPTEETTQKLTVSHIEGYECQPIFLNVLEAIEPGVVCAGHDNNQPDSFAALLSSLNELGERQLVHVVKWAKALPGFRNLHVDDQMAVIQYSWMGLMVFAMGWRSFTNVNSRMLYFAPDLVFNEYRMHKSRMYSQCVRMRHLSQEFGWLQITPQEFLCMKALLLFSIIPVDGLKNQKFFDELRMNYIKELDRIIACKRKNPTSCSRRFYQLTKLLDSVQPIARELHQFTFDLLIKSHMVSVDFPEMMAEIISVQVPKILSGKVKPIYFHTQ
Method in brief: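 Agonism scored as pEC50, fitted by 4-parameter curve against the response to 100 nM DHT, from dual-luciferase readout after 24 h compound treatment. Cells were HEK293 co-transfected (3 h) with human AR expression vector, androgen-responsive firefly reporter and Renilla control, in charcoal-stripped serum.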

[2] = biological target: T2, androgen receptor (AR-LBD) (Rattus norvegicus, UniProt P15207); assay: Evaluation of androgen receptor affinity (PolarScreen Androgen Receptor Competitor Assay Kit, Red; fluorescence polarization); details: 22° C. for 5 hours, relative to binding rate of 1 μM DHT, read-out: AR affinity (pEC50) (converted)
T2 construct: 5 μL of 2×AR-LBD/Fluoromone AL Red Complex contained in the kit; purchased Invitrogen
T2 sequence (P15207 651-882 limits assumed): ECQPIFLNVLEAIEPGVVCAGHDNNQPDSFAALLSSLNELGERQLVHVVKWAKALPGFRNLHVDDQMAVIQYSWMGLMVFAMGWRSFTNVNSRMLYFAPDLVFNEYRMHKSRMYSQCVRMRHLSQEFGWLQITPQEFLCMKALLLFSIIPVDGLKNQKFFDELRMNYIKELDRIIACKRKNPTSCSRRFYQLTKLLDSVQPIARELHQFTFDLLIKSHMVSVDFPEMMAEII
Method in brief: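 Duplicate wells; compound plus AR-LBD tracer complex incubated 22° C for 5 h, then FP measured. Effect compared with 1 μM DHT; 50%-effect concentration expressed as pEC50.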

SMILES: Cc1sc(N(Cc2ccc(C(F)F)cc2F)c2ccc(C#N)cc2)nc1C(=O)NS(C)(=O)=O [Compound 156, 2-[4-cyano-N-[[4-(difluoromethyl)-2-fluoro-phenyl]methyl]anilino]-5-methyl-N-methylsulfonyl-thiazole-4-carboxamide]
- EC50 [1]: 63.1 nM
- EC50 [2]: 39.8 nM

SMILES: COCCCS(=O)(=O)NC(=O)c1nc(N(Cc2ccc(OC(F)(F)F)cc2)c2ccc(C#N)cc2)sc1C [Compound 157, 2-[4-cyano-N-[[4-(trifluoromethoxy)phenyl]methyl]anilino]-N-(3-methoxypropylsulfonyl)-5-methyl-thiazole-4-carboxamide]
- EC50 [1]: 200 nM
- EC50 [2]: 31.6 nM

SMILES: Cc1sc(N(CCc2ccc(Cl)cc2)Cc2ccc(Cl)cn2)nc1C(=O)NS(C)(=O)=O [Compound 158, 2-[2-(4-chlorophenyl)ethyl-[(5-chloro-2-pyridyl)methyl]amino]-5-methyl-N-methylsulfonyl-thiazole-4-carboxamide]
- EC50 [1]: 631 nM
- EC50 [2]: 100 nM

SMILES: Cc1sc(N(CCc2ccc(OC(F)F)cc2)Cc2ccc(F)cc2)nc1C(=O)NS(C)(=O)=O [Compound 159, 2-[2-[4-(difluoromethoxy)phenyl]ethyl-[(4-fluorophenyl)methyl]amino]-5-methyl-N-methylsulfonyl-thiazole-4-carboxamide]
- EC50 [1]: 398 nM
- EC50 [2]: 63.1 nM

SMILES: Cc1sc(N(CCc2ccc(OC(F)F)cc2)Cc2ccccc2)nc1C(=O)NS(C)(=O)=O [Compound 160, 2-[benzyl-[2-[4-(difluoromethoxy)phenyl]ethyl]amino]-5-methyl-N-methylsulfonyl-thiazole-4-carboxamide]
- EC50 [1]: 501 nM
- EC50 [2]: 100 nM

SMILES: Cc1sc(N(CCc2ccc(Cl)cc2)Cc2nc(C3CC3)no2)nc1C(=O)NS(C)(=O)=O [Compound 161, 2-[2-(4-chlorophenyl)ethyl-[(3-cyclopropyl-1,2,4-oxadiazol-5-yl)methyl]amino]-5-methyl-N-methylsulfonyl-thiazole-4-carboxamide]
- EC50 [1]: 501 nM
- EC50 [2]: 126 nM

SMILES: Cc1sc(N(CCc2ccc(OC(F)F)cc2)Cc2nc(C3CC3)no2)nc1C(=O)NS(C)(=O)=O [Compound 162, 2-[(3-cyclopropyl-1,2,4-oxadiazol-5-yl)methyl-[2-[4-(difluoromethoxy)phenyl]ethyl]amino]-5-methyl-N-methylsulfonyl-thiazole-4-carboxamide]
- EC50 [1]: 1000 nM
- EC50 [2]: 158 nM

SMILES: COCCCS(=O)(=O)NC(=O)c1nc(N(Cc2ccc(Cl)cn2)c2ccc(C#N)cc2)sc1C [Compound 163, 2-[N-[(5-chloro-2-pyridyl)methyl]-4-cyano-anilino]-N-(3-methoxypropylsulfonyl)-5-methyl-thiazole-4-carboxamide]
- EC50 [1]: 251 nM
- EC50 [2]: 200 nM

SMILES: COCCCS(=O)(=O)NC(=O)c1nc(N(Cc2ccc(C(F)(F)F)nc2)c2ccc(C#N)cc2)sc1C [Compound 164, 2-[4-cyano-N-[[6-(trifluoromethyl)-3-pyridyl]methyl]anilino]-N-(3-methoxypropylsulfonyl)-5-methyl-thiazole-4-carboxamide]
- EC50 [1]: 631 nM
- EC50 [2]: 251 nM

SMILES: Cc1sc(N(CCc2ccc(C#N)cc2)Cc2ccc(Cl)cc2)nc1C(=O)NS(=O)(=O)Cc1cccnc1 [Compound 321, 2-[(4-chlorophenyl)methyl-[2-(4-cyanophenyl)ethyl]amino]-5-methyl-N-(3-pyridylmethylsulfonyl)thiazole-4-carboxamide]
- EC50 [1]: 100 nM
- EC50 [2]: 20 nM

SMILES: Cc1sc(N(CCc2ccc(C#N)cc2)Cc2ccc(Cl)cc2)nc1C(=O)NS(=O)(=O)Cc1cccc(F)c1 [Compound 322, 2-[(4-chlorophenyl)methyl-[2-(4-cyanophenyl)ethyl]amino]-N-[(3-fluorophenyl)methylsulfonyl]-5-methyl-thiazole-4-carboxamide]
- EC50 [1]: > 10000 nM
- EC50 [2]: 63.1 nM

SMILES: Cc1sc(N(CCc2ccc(C#N)cc2)Cc2ccc(OC(F)(F)F)cc2)nc1C(=O)NS(C)(=O)=O [Compound 323, 2-[2-(4-cyanophenyl)ethyl-[[4-(trifluoromethoxy)phenyl]methyl]amino]-5-methyl-N-methylsulfonyl-thiazole-4-carboxamide]
- EC50 [1]: 251 nM
- EC50 [2]: 25.1 nM

SMILES: Cc1sc(N(CCc2ccc(C#N)cc2)Cc2ccc(OC(F)(F)F)cc2)nc1C(=O)NS(=O)(=O)Cc1cccnc1 [Compound 324, 2-[2-(4-cyanophenyl)ethyl-[[4-(trifluoromethoxy)phenyl]methyl]amino]-5-methyl-N-(3-pyridylmethylsulfonyl)thiazole-4-carboxamide]
- EC50 [1]: 100 nM
- EC50 [2]: 20 nM

SMILES: Cc1sc(N(CCC2CCCCC2)Cc2ccc(Cl)cc2)nc1C(=O)NS(=O)(=O)Cc1cccnc1 [Compound 325, 2-[(4-chlorophenyl)methyl-(2-cyclohexylethyl)amino]-5-methyl-N-(3-pyridylmethylsulfonyl)thiazole-4-carboxamide]
- EC50 [1]: 398 nM
- EC50 [2]: 31.6 nM

SMILES: Cc1sc(N(CCn2cc(C#N)cn2)Cc2ccccc2)nc1C(=O)NS(C)(=O)=O [Compound 326, 2-[benzyl-[2-(4-cyanopyrazol-1-yl)ethyl]amino]-5-methyl-N-methylsulfonyl-thiazole-4-carboxamide]
- EC50 [1]: 1000 nM
- EC50 [2]: 631 nM

SMILES: Cc1sc(N(Cc2ccccc2)CC(F)(F)c2ccc(Cl)cc2)nc1C(=O)NS(C)(=O)=O [Compound 329, 2-[benzyl-[2-(4-chlorophenyl)-2,2-difluoro-ethyl]amino]-5-methyl-N-methylsulfonyl-thiazole-4-carboxamide]
- EC50 [1]: 3980 nM
- EC50 [2]: 126 nM

SMILES: Cc1sc(N(CCc2cccc(C(F)(F)F)c2)Cc2ccccc2)nc1C(=O)NS(C)(=O)=O [Compound 330, 2-[benzyl-[2-[3-(trifluoromethyl)phenyl]ethyl]amino]-5-methyl-N-methylsulfonyl-thiazole-4-carboxamide]
- EC50 [1]: > 10000 nM
- EC50 [2]: 251 nM

SMILES: Cc1sc(N(CCc2ccc(C(F)(F)F)cc2)Cc2ccccc2)nc1C(=O)NS(C)(=O)=O [Compound 333, 2-[benzyl-[2-[4-(trifluoromethyl)phenyl]ethyl]amino]-5-methyl-N-methylsulfonyl-thiazole-4-carboxamide]
- EC50 [1]: 100 nM
- EC50 [2]: 25.1 nM

SMILES: Cc1sc(N(Cc2ccccc2)c2ccc3ncsc3c2)nc1C(=O)NS(C)(=O)=O [Compound 335, 2-[1,3-benzothiazol-6-yl(benzyl)amino]-5-methyl-N-methylsulfonyl-thiazole-4-carboxamide]
- EC50 [1]: 1580 nM
- EC50 [2]: 631 nM

SMILES: Cc1sc(N(CCc2ccccc2F)Cc2ccccc2)nc1C(=O)NS(C)(=O)=O [Compound 339, 2-[benzyl-[2-(2-fluorophenyl)ethyl]amino]-5-methyl-N-methylsulfonyl-thiazole-4-carboxamide]
- EC50 [1]: 2000 nM
- EC50 [2]: 39.8 nM

SMILES: Cc1sc(N(CCc2ccc(F)cc2)Cc2ccccc2)nc1C(=O)NS(C)(=O)=O [Compound 340, 2-[benzyl-[2-(4-fluorophenyl)ethyl]amino]-5-methyl-N-methylsulfonyl-thiazole-4-carboxamide]
- EC50 [1]: 251 nM
- EC50 [2]: 100 nM

SMILES: Cc1sc(N(Cc2ccccc2)c2ccc(C(F)(F)F)cc2)nc1C(=O)NS(C)(=O)=O [Compound 341, 2-[N-benzyl-4-(trifluoromethyl)anilino]-5-methyl-N-methylsulfonyl-thiazole-4-carboxamide]
- EC50 [1]: 1260 nM
- EC50 [2]: 63.1 nM

SMILES: COc1ccc(CN(c2ccc(C#N)cc2)c2nc(C(=O)NS(C)(=O)=O)c(C)s2)cc1 [Compound 342, 2-[4-cyano-N-[(4-methoxyphenyl)methyl]anilino]-5-methyl-N-methylsulfonyl-thiazole-4-carboxamide]
- EC50 [1]: 25.1 nM
- EC50 [2]: 63.1 nM

SMILES: Cc1sc(N(Cc2cccc(OC(F)(F)F)c2)c2ccc(C#N)cc2)nc1C(=O)NS(C)(=O)=O [Compound 343, 2-[4-cyano-N-[[3-(trifluoromethoxy)phenyl]methyl]anilino]-5-methyl-N-methylsulfonyl-thiazole-4-carboxamide]
- EC50 [1]: 100 nM
- EC50 [2]: 31.6 nM
